From patent publication US5045458A, “Antibiotics PB-6042S” (Shionogi & Co., Ltd., priority 1988, dated 1991)
≈ marks a conversion by molar mass, not a printed value. Where two headings read alike, the source gives them in different places.

Experiments:
B. vulgatus ATCC29327 = test: MIC against anaerobic bacteria; type: cell-based; conditions: Phocaeicola vulgatus; B. vulgatus ATCC29327; read-out: MIC
C. perfringens SAKAI = test: microbe, parasite or virus in culture; type: cell-based; conditions: Clostridium perfringens
[1] = test system: B. thetaiotaomicron WAL3304; test: MIC against anaerobic bacteria; type: cell-based; conditions: Bacteroides thetaiotaomicron; B. thetaiotaomicron WAL3304; read-out: MIC
L. plantarum JCM1100 = test: MIC against anaerobic bacteria; type: cell-based; conditions: Lactiplantibacillus plantarum
[2] = test system: P. asaccharolyticus ATCC14963; test: MIC against anaerobic bacteria; type: cell-based; conditions: Peptoniphilus asaccharolyticus, ATCC14963
F. mortiferum ATCC9817 = test: MIC against anaerobic bacteria; type: cell-based; conditions: Fusobacterium mortiferum
B. longum ATCC15707 = test: MIC against anaerobic bacteria; type: cell-based; conditions: Bifidobacterium longum
P. aeruginosa A25619 = test: MIC against aerobic bacteria; conditions: Pseudomonas aeruginosa
C. perfringens ATCC13124 = test: microbe, parasite or virus in culture; type: cell-based; conditions: Clostridium perfringens
B. ovatus 2505 = test: MIC against anaerobic bacteria; type: cell-based; conditions: Bacteroides ovatus; B. ovatus 2505; read-out: MIC
S. pneumoniae TYPE 1 = test: MIC against aerobic bacteria; conditions: Streptococcus pneumoniae, TYPE1
E. lentum II-1 = test: MIC against anaerobic bacteria; type: cell-based; conditions: Eggerthella lenta, II1
F. nucleatum ATCC25586 = test: MIC against anaerobic bacteria; type: cell-based; conditions: Fusobacterium nucleatum
P. micros VPI5464-1 = test: MIC against anaerobic bacteria; type: cell-based; conditions: Parvimonas micra, VPI54641
[3] = test system: S. constellatus ATCC27823; test: MIC against anaerobic bacteria; type: cell-based; conditions: Streptococcus constellatus
F. varium ATCC8501 = test: MIC against anaerobic bacteria; type: cell-based; conditions: Fusobacterium varium
E. aerofaciens ATCC25986 = test: MIC against anaerobic bacteria; type: cell-based; conditions: Collinsella aerofaciens, ATCC25986
B. distasonis JU-11-1 = test: MIC against anaerobic bacteria; type: cell-based; conditions: Parabacteroides distasonis, JU111; B. distasonis JU-11-1; read-out: MIC
P. acens ATCC11827 = test: MIC against anaerobic bacteria; type: cell-based
S. aureus FDA JC-1 = test: MIC against aerobic bacteria; conditions: Staphylococcus aureus, FDAJC1
P. anaerobius B-38 = test: MIC against anaerobic bacteria; type: cell-based; conditions: Peptostreptococcus anaerobius, B38
[4] = filter paper electrophoresis and bioautography (acidic property); type: physicochemical
Source text: Other physicochemical properties of PB-6042s in the form of sodium salt are listed below.

E. coli NIHJ JC-2 = test: MIC against aerobic bacteria; conditions: Escherichia coli, NIHJJC2
L. ruminis ATCC27780 = test: MIC against anaerobic bacteria; type: cell-based; conditions: L. ruminis ATCC27780; read-out: MIC
P. prevotii ATCC9321 = test: MIC against anaerobic bacteria; type: cell-based; conditions: Anaerococcus prevotii, ATCC9321
B. fragilis GM7000 = test: MIC against anaerobic bacteria; type: cell-based; conditions: Bacteroides fragilis; B. fragilis GM7000; read-out: MIC
K. pneumoniae SR1 = test: MIC against aerobic bacteria; conditions: Klebsiella pneumoniae
S. pyogenes C-203 = test: MIC against aerobic bacteria; conditions: Streptococcus pyogenes, C203
P. vulgaris CN-329 = test: MIC against aerobic bacteria; conditions: Proteus vulgaris, CN329
B. adolescentis JCM1250 = test: MIC against anaerobic bacteria; type: cell-based; conditions: Bifidobacterium adolescentis, JCM1250
[5] = test system: B. melaninogenicus GAI0413; test: MIC against anaerobic bacteria; type: cell-based
F. necrophorum ATCC25286 = test: MIC against anaerobic bacteria; type: cell-based; conditions: Fusobacterium necrophorum
B. bifidum JCM1122 = test: MIC against anaerobic bacteria; type: cell-based; conditions: Bifidobacterium bifidum
C. difficile ATCC17857 = test: MIC against anaerobic bacteria; type: cell-based; conditions: Clostridioides difficile
S. aureus SR14(R) = test: MIC against aerobic bacteria; conditions: Staphylococcus aureus
anaerobic bacteria = test: antibacterial activity against anaerobic bacteria (summary); type: cell-based; conditions: in words
B. fragilis ATCC25285 = test: MIC against anaerobic bacteria; type: cell-based; conditions: Bacteroides fragilis; B. fragilis ATCC25285; read-out: MIC
E. limosum ATCC8486 = test: MIC against anaerobic bacteria; type: cell-based; conditions: Eubacterium limosum; E. limosum ATCC8486; read-out: MIC

Row | Structure (SMILES) | MIC (B. vulgatus ATCC29327) [µg/mL] | MIC (C. perfringens SAKAI) [µg/mL] | MIC [1] [µg/mL] | MIC [2] [µg/mL] | MIC (P. aeruginosa A25619) [µg/mL] | MIC (C. perfringens ATCC13124) [µg/mL] | MIC (B. ovatus 2505) [µg/mL] | MIC (S. pneumoniae TYPE 1) [µg/mL] | MIC (F. nucleatum ATCC25586) [µg/mL] | MIC (P. micros VPI5464-1) [µg/mL] | MIC [3] [µg/mL] | MIC (F. varium ATCC8501) [µg/mL] | MIC (E. aerofaciens ATCC25986) [µg/mL] | MIC (B. distasonis JU-11-1) [µg/mL] | MIC (P. acens ATCC11827) [µg/mL] | MIC (S. aureus FDA JC-1) [µg/mL] | MIC (P. anaerobius B-38) [µg/mL] | acidic property [4] | MIC (E. coli NIHJ JC-2) [µg/mL] | MIC (L. ruminis ATCC27780) [µg/mL] | also measured
1 | C=C1OC(=O)C(C(=O)CCCCCCCCC)=C1O [PB-6042A] | 3.13 (≈ 11.8 µM) | 12.5 (≈ 46.9 µM) | 3.13 (≈ 11.8 µM) | 12.5 (≈ 46.9 µM) | > 100 | 12.5 (≈ 46.9 µM) | 3.13 (≈ 11.8 µM) | 25 (≈ 93.9 µM) | 6.25 (≈ 23.5 µM) | 1.56 (≈ 5.86 µM) | 3.13 (≈ 11.8 µM) | > 100 | 12.5 (≈ 46.9 µM) | 3.13 (≈ 11.8 µM) | 3.13 (≈ 11.8 µM) | 25 (≈ 93.9 µM) | 3.13 (≈ 11.8 µM) | acidic substances | > 100 | 6.25 (≈ 23.5 µM) | MIC (L. plantarum JCM1100; JCM1100): 12.5 µg/mL (≈ 46.9 µM); MIC (F. mortiferum ATCC9817; ATCC9817): 12.5 µg/mL (≈ 46.9 µM); MIC (B. longum ATCC15707; B. longum ATCC15707, read-out: MIC): 6.25 µg/mL (≈ 23.5 µM); MIC (E. lentum II-1; E. lentum II-1, read-out: MIC): 6.25 µg/mL (≈ 23.5 µM); MIC (P. prevotii ATCC9321): 12.5 µg/mL (≈ 46.9 µM); MIC (B. fragilis GM7000): 3.13 µg/mL (≈ 11.8 µM); MIC (K. pneumoniae SR1): > 100 µg/mL; MIC (S. pyogenes C-203): 25 µg/mL (≈ 93.9 µM); MIC (P. vulgaris CN-329): > 100 µg/mL; MIC (B. adolescentis JCM1250): 12.5 µg/mL (≈ 46.9 µM); MIC ([5]; B. melaninogenicus GAI0413, read-out: MIC): 6.25 µg/mL (≈ 23.5 µM); MIC (F. necrophorum ATCC25286): 6.25 µg/mL (≈ 23.5 µM); MIC (B. bifidum JCM1122; JCM1122): 12.5 µg/mL (≈ 46.9 µM); MIC (C. difficile ATCC17857): 3.13 µg/mL (≈ 11.8 µM); MIC (S. aureus SR14(R)): > 100 µg/mL; growth inhibition of anaerobic bacteria (anaerobic bacteria): inhibit the growth of anaerobic bacteria, selectively; MIC (B. fragilis ATCC25285): 3.13 µg/mL (≈ 11.8 µM); MIC (E. limosum ATCC8486): 6.25 µg/mL (≈ 23.5 µM)
2 | C=C1OC(=O)C(C(=O)CCC/C=C\CCCCCC)=C1O [PB-6042B] | 3.13 (≈ 10.7 µM) | 6.25 (≈ 21.4 µM) | 3.13 (≈ 10.7 µM) | 6.25 (≈ 21.4 µM) | > 100 | 6.25 (≈ 21.4 µM) | 3.13 (≈ 10.7 µM) | 12.5 (≈ 42.8 µM) | 12.5 (≈ 42.8 µM) | 1.56 (≈ 5.34 µM) | 1.56 (≈ 5.34 µM) | > 100 | 6.25 (≈ 21.4 µM) | 3.13 (≈ 10.7 µM) | 3.13 (≈ 10.7 µM) | 12.5 (≈ 42.8 µM) | 3.13 (≈ 10.7 µM) | acidic substances | > 100 | 3.13 (≈ 10.7 µM) | MIC (L. plantarum JCM1100; L. plantarum JCM1100, read-out: MIC): 12.5 µg/mL (≈ 42.8 µM); MIC (F. mortiferum ATCC9817; F. mortiferum ATCC9817, read-out: MIC): 25 µg/mL (≈ 85.5 µM); MIC (B. longum ATCC15707; ATCC15707): 6.25 µg/mL (≈ 21.4 µM); MIC (E. lentum II-1): 6.25 µg/mL (≈ 21.4 µM); MIC (P. prevotii ATCC9321): 6.25 µg/mL (≈ 21.4 µM); MIC (B. fragilis GM7000): 3.13 µg/mL (≈ 10.7 µM); MIC (K. pneumoniae SR1): > 100 µg/mL; MIC (S. pyogenes C-203): 12.5 µg/mL (≈ 42.8 µM); MIC (P. vulgaris CN-329): > 100 µg/mL; MIC (B. adolescentis JCM1250): 6.25 µg/mL (≈ 21.4 µM); MIC ([5]; GAI0413): 6.25 µg/mL (≈ 21.4 µM); MIC (F. necrophorum ATCC25286): 12.5 µg/mL (≈ 42.8 µM); MIC (B. bifidum JCM1122; B. bifidum JCM1122, read-out: MIC): 12.5 µg/mL (≈ 42.8 µM); MIC (C. difficile ATCC17857): 1.56 µg/mL (≈ 5.34 µM); MIC (S. aureus SR14(R)): 12.5 µg/mL (≈ 42.8 µM); growth inhibition of anaerobic bacteria (anaerobic bacteria): inhibit the growth of anaerobic bacteria, selectively; MIC (B. fragilis ATCC25285): 3.13 µg/mL (≈ 10.7 µM); MIC (E. limosum ATCC8486): 3.13 µg/mL (≈ 10.7 µM)
